In data set [1] the test system is Leishmania donovani. Put plainly: Antileishmanial activity against Leishmania donovani S1 promastigotes assessed as parasite growth inhibition incubated for 72 hrs by Alamar blue assay. The class given is functional, organism-based. Particulars: S1, 72 h.
The subject of data set [2] is Leishmania infantum. Put plainly: Antileishmanial activity against Leishmania infantum MHOM/BR/70/BH46 promastigotes assessed as reduction in parasite growth incubated for 72 hrs by resazurin staining based analysis. The class given is functional, organism-based. Particulars: MHOM/BR/70/BH46, 72 h.
A short description of data set [3]: Cytotoxicity against African green monkey Vero cells assessed as reduction in cell viability measured after 96 hrs by MTS assay. The class given is toxicity, cell-based, Chlorocebus sabaeus.
In data set [4] the test system is Leishmania donovani. Put plainly: Antileishmanial activity against Leishmania donovani MHOM/IN/95/9515 promastigotes assessed as inhibition of parasite proliferation measured for 48 hrs by resazurin dye-based analysis relative to control. The class given is functional. On the set-up: scale not given: the % may be the effect or the level left.
A further data set concerns Leishmania major. Put plainly: Antileishmanial activity against Leishmania major MHOM/IL/80/Friendlin assessed as reduction in parasite growth incubated for 48 hrs by MTT assay. The class given is functional, organism-based.
The nature of data set [5]: Antileishmanial activity against Leishmania infantum BCN-150 promastigotes assessed as reduction in parasite growth incubated for 48 hrs by MTT assay. The class given is functional.
For a further data set, the system named is HT-29. Put plainly: Antiproliferative activity against human HT-29 cells assessed as reduction in cell viability incubated for 48 hrs by MTT assay. The class given is functional, cell-based. The settings on record: HT-29, 48 h.
Another data set concerns NCI-H1299. Put plainly: Antiproliferative activity against human NCI-H1299 cells assessed as reduction in cell viability incubated for 48 hrs by MTT assay. The class given is functional, cell-based. Particulars: NCI-H1299, 48 h.
The test system of another data set is Leishmania amazonensis. Put plainly: Antileishmanial activity against Leishmania amazonensis MHOM/BR/75/Josefa promastigotes assessed as reduction in parasite viability after 72 hrs by Neubauer chamber counting method. The class given is functional, organism-based.
The test system of data set [6] is Leishmania donovani. Put plainly: Antileishmanial activity against Leishmania donovani MHOM/ET/67/HU3 promastigotes assessed as inhibition of parasite growth incubated for 72 hrs by MTT assay. Particulars: MHOM/ET/67/HU3, 72 h. The class given is functional, organism-based.
Data set [7] in a line: Selectivity index, ratio of CC50 for cytotoxicity against mouse J774.A1 cells to IC50 for antileishmanial activity against Leishmania amazonensis axenic amastigote assessed as inhibition of parasite growth. The class given is toxicity, cell-based. Particulars: read-out: Ratio CC50/IC50.
Data set [8] relates to Leishmania donovani. Put plainly: Antileishmanial activity against Leishmania donovani axenic amastigotes assessed as reduction in parasite growth measured after 24 hrs by PI staining based analysis. The class given is functional, organism-based.
The test system of data set [9] is Leishmania donovani. Put plainly: Antileishmanial activity against Leishmania donovani MHOM/SD/62/1S amastigotes assessed as reduction in cell growth. The class given is functional, organism-based.
For data set [10], the system named is Leishmania infantum. Put plainly: Antileishmanial activity against Leishmania infantum axenic amastigotes (MCAN/ES/89/IPZ229/1/89) assessed as inhibition of parasite proliferation measured after 24 hrs by resazurin dye based fluorescence analysis. The class given is functional, organism-based. Particulars: MCAN/ES/89/IPZ229/1/89, 24 h.
In the next data set the test system is Leishmania braziliensis. Put plainly: Antileishmanial activity against Leishmania braziliensis MHOM/BR/75/M2904 promastigotes assessed as reduction in cell viability incubated for 48 hrs by resazurin staining based assay. The settings on record: MHOM/BR/75/M2904, 48 h. The class given is functional, organism-based.
In data set [11] the test system is Leishmania donovani. Put plainly: Antileishmanial activity against Leishmania donovani promastigotes infected in golden hamster assessed as reduction in parasite load in spleen at 20 mg/kg administered twice per week for 4 weeks relative to control. The class given is functional. On the set-up: scale not given: the % may be the effect or the level left.
For data set [12], the system named is Leishmania donovani. Put plainly: Antileishmanial activity against Leishmania donovani promastigotes infected in golden hamster assessed as reduction in parasite load in liver at 20 mg/kg administered twice per week for 4 weeks relative to control. On the set-up: scale not given: the % may be the effect or the level left. The class given is functional.
For data set [13], the system named is Leishmania donovani. Put plainly: Antileishmanial activity against Leishmania donovani promastigotes assessed as inhibition of cell growth measured after 3 days by resazurin/alamar blue-staining based analysis. The class given is functional, organism-based. Particulars: 72 h.
The subject of a further data set is Trypanosoma brucei. Put plainly: Antitrypanosomal activity against Trypanosoma brucei assessed as parasite growth inhibition. The class given is functional, organism-based.
Data set [14] concerns Leishmania infantum. Put plainly: Antileishmanial activity against Leishmania infantum MON-1 promastigotes assessed as reduction in parasite viability measured after 48 hrs by MTT assay. The class given is functional, organism-based. The settings on record: MON-1, 48 h.
The subject of data set [15] is HepG2. Put plainly: Antiproliferative activity against human HepG2 cells assessed as reduction in cell growth measured for 72 hrs by MTT assay. The class given is functional, cell-based. Particulars: HepG2, 72 h.
In data set [16] the test system is HepG2. Put plainly: Cytotoxicity against human HepG2 cells assessed as reduction in cell growth measured for 48 hrs by MTT assay. The class given is functional.
The test system of data set [17] is Leishmania infantum. Put plainly: Antiparasitic activity against Leishmania infantum amastigotes infected in human THP-1 cells assessed as reduction in parasitemia incubated for 72 hrs by high content imaging analysis. The settings on record: THP-1, 72 h. The class given is functional, organism-based.

Molecules are shown by their SMILES. pEC50, pIC50: −log10 of the molar value. Bounds are passed on as bounds.

From ChEMBL document CHEMBL5528001, “Synthetic product-based approach toward potential antileishmanial drug development” (Eur J Med Chem, 2024) come the findings set out here.

As for `COc1cccc2c1O/C(=C(/C)c1ncc([N+](=O)[O-])[nH]1)C2=O`, the pIC50 in the data set with Leishmania donovani [1] was 7.80.

Take `Cc1cc(Br)cc2c(/C=N/NC(=S)Nc3ccccc3)c[nH]c12`: the negative-log IC50 (pIC50) with Leishmania infantum [2] is 5.25.

Regarding `O=C(Cn1cnc2cc(Cl)ccc2c1=O)n1cnc2cc(Cl)ccc2c1=O`, the IC50 at 96 h in data set [3] came out at 0.03 µM. Further, the Activity with Leishmania donovani [4] was 29%.

As to `N#C[Se]/C=C/c1ccccc1`, the pIC50 is 5.48 in the data set on Leishmania major, 5.43 in [5], 4.92 in the data set with HT-29 and 4.92 with NCI-H1299.

Regarding `CN(C)c1ccc(-c2nc(C(=O)NCCCl)cc3c2[nH]c2ccccc23)cc1`, the pIC50 in the data set on Leishmania amazonensis is 4.77.

With `CC(=O)Oc1ccc(CN2CNC(=O)C=N2)cc1C1OC(c2cccc(Cl)c2)=NN1C(C)=O` (stereo not drawn), the figures for the pIC50 in the data set on Leishmania donovani [6] and in the data set on Leishmania donovani [8] were 5.05 and 5.22, respectively. The selectivity ratio in data set [7] was 2.4.

For `Cc1ccc2c(NCCCCCNC(=O)c3cccc(/C=C/C(=O)c4ccc(C)o4)c3)ccnc2c1`, in the data set with Leishmania donovani [9], the pIC50 was 6.34.

As to `CN(C)c1ccc(-c2nc(C3=NCCO3)cc3c2[nH]c2ccccc23)cc1`, in the data set with Leishmania amazonensis, the negative logarithm of the IC50 (pIC50) is 5.21.

With `CCCCCCCCCn1cc(COC(C)=O)[n+](C)n1`, the pIC50 was 5.27 with Leishmania infantum [10] and 5.34 with Leishmania braziliensis. In addition, the values for the Activity in the data set on Leishmania donovani [11] and with Leishmania donovani [12] were 59.8% and 26.88%, respectively.

Regarding `O=c1c2ccccc2nc(/C=C/c2ccc([N+](=O)[O-])cc2)n1-c1ccccc1`, the pIC50 in the data set on Leishmania donovani [13] is 7.70.

As to `N#C[Se]c1ccc2c(c1)OCO2`, the pIC50 in the data set with Leishmania major was 5.34; in data set [5], 5.48; with HT-29, 4.21; in the data set on NCI-H1299, 4.08.

For `CCCc1cn(CCN2CCN(C(=O)c3c(C)nc4ccc(C)cn34)CC2)nn1`, in the data set with Trypanosoma brucei, the pIC50 is 6.14.

Regarding `CCOC(=O)c1cc2c([nH]c3ccccc32)c(-c2cc3ccccc3n3nnnc23)n1`, the pEC50 in the data set with Leishmania infantum [14] was 5.47; with HepG2 [15], 4.99. In the data set on HepG2 [16], the half-maximal cytotoxic concentration (CC50) was 27.9 µM.

As for `Cn1c(=O)c2c(c3ccccc31)OC(C)(C)[C@H]1CC[C@@](C)(O)[C@H](Cl)[C@H]21`, the negative logarithm of the IC50 (pIC50) in the data set with Leishmania infantum [17] was less than 5.20.
